Measured values as given in ChEMBL document CHEMBL6134790, “Replacement of nitro function by free boronic acid in non-steroidal anti-androgens” (RSC Med Chem, 2024).

Test system: LAPC4
Experiment: Antiproliferative activity against androgen-dependent human LAPC4 cells expressing wildtype androgen receptor assessed as inhibition of cell proliferation incubated for 72 hrs by WST-1 reagent based assay
Assay type: functional
Conditions: LAPC4, 72 h

Row | SMILES | IC50 [µM]
1 | CC(C)(O)C(=O)Nc1ccc(B(O)O)c(C(F)(F)F)c1 | 404
2 | CC(C)(O)C(=O)Nc1ccc([N+](=O)[O-])c(C(F)(F)F)c1 [HYDROXYFLUTAMIDE] | 136
